According to US10946024B2, “Method for treating cancer” (Epizyme, Inc., priority 2014, dated 2021):

Experiments:
[1] = test system: H3K27me3/total H3 in SW982 cells; assay: H3K27 methylation alterations by ELISA of extracted histones; assay type: cell-based, human; conditions: SW982, 96 hours
Experimental: HS-SY-II and SW982 cells were treated with either DMSO or Compound A starting at 40 nmol/L and decreasing in fourfold dilutions for 96 hours. Cells were washed by ice cold PBS, harvested by cell scraper, and lysed with 100 μl of nuclear extraction buffer (10 mM Tris-HCl, 10 mM MgCl2, 25 mM KCl, 1% Triton X-100, 8.6% Sucrose, plus 1× Halt Protease inhibitor cocktail (1861281, Thermo Scientific). Nuclei were collected by centrifugation at 600 g for 5 minutes at 4° C. and washed once with ice cold PBS. Supernatant was removed and histones extracted for one hour with 100 μL of 0.4 N cold sulfuric acid. Extracts were clarified by centrifugation at 10,000 g for 10 minutes at 4° C. and transferred to a fresh microcentrifuge tube containing 1 mL of ice cold acetone. Histones were precipitated at −20° C. for overnight, pelleted by centrifugation at 10,000 g for 10 minutes and resuspended in 100 μl of water. Histones were quantified using the BCA protein assay (23225, Pierce). […] Subsequently, the developed colors in the wells were measured using a plate spectrophotometer (SpectraMax 250, Molecular Devices) at 450 nm (reference wavelength 650 nm). The H3K27me3 levels were adjusted to total histone H3, and expressed as fold changes to DMSO control.
The range of IC50 values (two independent experiments), shown in FIG. 6B, were determined by GraphPad Prism (GraphPad Software).

[2] = test system: ATF3, EGR1, CDKN2A expression in HS-SY-II cells; assay: Gene expression changes in vitro by RT-PCR, normalized to GAPDH; assay type: cell-based, human; set-up: key to ATF3 expression change, significance 0 uM vs. / EGR1 expression change, significance 0 uM vs. / CDKN2A expression change, significance 0 uM vs.: *: Asterisks mean significant changes compared to levels of 0 μM-treated groups.; **: Asterisks mean significant changes compared to levels of 0 μM-treated groups.; ***: Asterisks mean significant changes compared to levels of 0 μM-treated groups.; ****: Asterisks mean significant changes compared to levels of 0 μM-treated groups
Experimental: HS-SY-II and SW982 cells were treated with EZH2 inhibitors (Compound A or EPZ-011989) and collected at the indicated time points. Total RNA isolation and cDNA synthesis were performed using the TaqMan Gene Expression Cells-to-CT kit (4399002, Life technologies) according to the manufacturer's protocol. ATF3, EGR1, CDKN2A and GAPDH expression were analyzed by using the TaqMan Gene Expression Assays (Life technologies, 4331182) and the TaqMan Probes (Hs00231069_m1, Hs00152928_m1, Hs00233365_m1, and Hs99999905_m1, respectively).

For `CCN(c1cc(-c2ccc(CN3CCOCC3)cc2)cc(C(=O)NCc2c(C)cc(C)[nH]c2=O)c1C)C1CCOCC1` [Compound A], the “ratio of H3K27me3/total H3 (ratio to control)” value [1] was “decreased ratios”, the “ATF3 and EGR1 expression” value ([2]; HS-SY-II in vitro culture) was “upregulated” and the CDKN2A expression ([2]; HS-SY-II in vitro culture) was “Dose- and time-dependent CDKN2A upregulation”. The “CDKN2A expression change, significance 0 uM vs.” value ([2]; HS-SY-II, 1 uM, day 2) was “**”, the “ATF3 expression change, significance 0 uM vs.” value ([2]; HS-SY-II, 1 uM, day 4) was “*” and the “CDKN2A expression change, significance 0 uM vs.” value ([2]; HS-SY-II, 1 uM, day 4) was “****”. For the same compound, the “ATF3 expression change, significance 0 uM vs.” value ([2]; HS-SY-II, 1 uM, day 7) was “**”, the “CDKN2A expression change, significance 0 uM vs.” value ([2]; HS-SY-II, 1 uM, day 7) was “****” and the “EGR1 expression change, significance 0 uM vs.” value ([2]; HS-SY-II, 1 uM, day 7) was “**”.
